Reference: patent publication US10864207B2, “Method of treating endothelial dysfunction” (Celagenex Research (India) Pvt. Ltd., priority 2019, dated 2020)

What was measured:
[1] = tested on: eNOS gene; assay: eNOS gene expression by semi-quantitative RT-PCR in H9C2 cells; assay type: cell-based, rat; settings: for eNOS expression in % / Regulation in Terms of Folds eNOS: normalized to β-Actin; for Regulation in Terms of Folds eNOS: control = 1.00
Description: The test substances were evaluated for their gene expression activity in H9C2 (rat cardiomyocytes) and the concentration of test substances (G1, G2 and G3) taken for gene expression studies was 500 μg/ml. […] [Hunter C. Champion, et al. “PNAS, 2005; 102:5:1661-1666.]
eNOS levels were estimated for the test substance by gene expression method, where the level of expression of eNOS expression on […] Cardiomyocytes (H9C2) was determined with respect to untreated H9C2 cells.
(§1) The H9C2 cells treated with test samples were subjected to cell lysis by treating with Tri-extraction reagent. Chloroform was added to isolate the total RNA from the sample and subjected for centrifugation. Out of the three distinct layers observed, upper layer was collected in fresh tube and equal volume of isopropanol was added and incubated at −20° C. for 10 mins. After the incubation followed by centrifugation, appropriate volume of ethanol was added to resuspend the pellet. After incubation and centrifugation, the pellet was air dried and appropriate volume of TAE buffer was added. The isolated total RNA was further used for cDNA synthesis. cDNA was synthesized by priming with oligo-dT primers followed by reverse transcriptase enzyme treatment according to manufacturer's protocol (Thermoscienctific). The cDNA thus synthesized was taken up for PCR for the amplification of eNOS and GAPDH (internal control).
The mRNA expression levels of eNOS were determined using semi-quantitative reverse transcriptase-polymerase chain reaction (RT-PCR). 50 μl of the reaction mixture was subjected to PCR for amplification of eNOS. cDNAs using specifically designed primers procured from Eurofins, India and GAPDH/β-Actin (House keeping genes) was co-amplified with each reaction as an internal control.
eNOS: 95° C. for 5 min followed by 35 cycles of denaturation at 95° C. for 30 seconds, annealing temperature for 30 seconds and extension at 72° C. for 45 seconds. This was followed by final extension at 72° C. for 10 min. The primers used in this example for I strand synthesis and IInd strand synthesis are disclosed in priority Indian Patent Application No. 201921000093, filed Jan. 2, 2019, which is incorporated herein by reference.

[2] = tested on: PGI2 gene; assay: PGI2 gene expression by semi-quantitative RT-PCR in H9C2 cells; assay type: cell-based, rat; settings: for PGI2 expression in % / Regulation in Terms of Folds PGI2: normalized to GAPDH; for Regulation in Terms of Folds PGI2: control = 1.00
Description: […] […] [Hunter C. Champion et al. PNAS, 2005; 102:5:1661-1666].
PGI2 were estimated for the test substance by gene expression method, where the level of expression of PGI2 expression on Rat Cardiomyocytes (H9C2) was determined with respect to untreated H9C2 cells.
as §1, with “treated with drug were subjected” for “treated with test samples were subjected”, “Chloroform was added, to isolate” for “Chloroform was added to isolate”, “according to manufacturers protocol (Thermoscienctific).” for “according to manufacturer's protocol (Thermoscienctific).”, “amplification of PGI2 and GAPDH/β-Actin” for “amplification of eNOS and GAPDH”, “PGI2 and GAPDH/β-Actin (internal control).” for “eNOS and GAPDH (internal control).”
The mRNA expression levels of PGI2 were determined using semi-quantitative reverse transcriptase-polymerase chain reaction (RT-PCR). 50 μl of the reaction mixture was subjected to PCR for amplification of PGI2. cDNAs using specifically designed primers procured from Eurofins, India and GAPDH/β-Actin (House keeping genes) was co-amplified with each reaction as an internal control.
PGI2: 95° C. for 5 min followed by 35 cycles of denaturation at 95° C. for 30 seconds, annealing Tm for 30 seconds and extension at 72° C. for 45 seconds. This was followed by final extension at 72° C. for 10 min. The primers used in this example for I strand synthesis and IInd strand synthesis are disclosed in priority Indian Patent Application No. 201921000093, filed Jan. 2, 2019, which is incorporated herein by reference.

SMILES: C[n+]1cccc(C(N)=O)c1 [Group G1, N^1-methyl nicotinamide chloride]
- eNOS expression in % ([1]; 500 μg/ml): 21%
- Regulation in Terms of Folds eNOS ([1]; 500 μg/ml): 1.21 fold
- eNOS gene over-expression as compared to the control ([1]; at tested doses (500 μg/ml)): 0.21 folds
- PGI2 gene expression increase as compared to the control ([2]; 500 μg/ml): 0.14 folds
- PGI2 expression in % ([2]; 500 μg/ml): 14%
- Regulation in Terms of Folds PGI2 ([2]; 500 μg/ml): 1.14 fold

SMILES: O=[N+]([O-])OCC(CO[N+](=O)[O-])O[N+](=O)[O-] [Nitroglycerin, reference compound]
- eNOS expression in % ([1]; 250 μg/ml): 56%
- Regulation in Terms of Folds eNOS ([1]; 250 μg/ml): 1.56 fold
- eNOS gene up-regulation over control ([1]; standard sample (250 μg/ml)): 0.56 fold
- PGI2 expression in % ([2]; 250 μg/ml): 29%
- Regulation in Terms of Folds PGI2 ([2]; 250 μg/ml): 1.29 fold
